The text below walks through data of PMC10470313, “Developing a peptide to disrupt cohesin head domain interactions” (iScience, 2023).

Where no end group is shown, it is not given here.

Assay [1] concerns yME-961 strain yeast cells. Put plainly: Sister chromatid cohesion GFP dot assay. It is filed as cell-based. Particulars: peptide 1 h at G1, release, G2/M arrest. The protocol: Figure 4 CIP3 inhibits sister chromatid cohesion and chromosome condensation (A) Flowchart outlining the sister chromatid cohesion assay. (B) yME-961 strain cells were grown and treated with peptides, as shown in A. Premature sister chromatid separation was determined by counting the number of cells showing two GFP dots. At least 300 cells were counted in 3 independent experiments. ∗∗p < 0.001. (C) Cells were grown to mid-log phase. The culture was divided into two flasks, one being treated with CIP3-TAT. Condensation was determined in cells at the G2/M phase by 2-photon microscopy. ∗∗p < 0.001. (D) yKS-008 strain (Smc3-V5) cells were grown and treated with CIP3-TAT peptide, as shown in A. Cells were processed for ChIP with antibodies against V5.
The potential of CIP3-TAT to inhibit cohesion activity was explored by analyzing sister chromatid cohesion in cells arrested at the G2/M. Inserted in the LYS4 locus were LacO arrays, which bind LacI-GFP. In unperturbed cells arrested at the G2/M phase of the cell cycle, cohesin tethers the sister chromatids visualized under the microscope as a single GFP dot. When cohesin is inactivated, the sister chromatids fall apart and are seen as two distinctive GFP dots. yME-961 strain cells were grown to mid-log phase and arrested at the G1 phase of the cell cycle. […]

In assay [2] the test system is yME-961 strain yeast cells. Put plainly: Cell cycle stage by flow cytometry. It is filed as cell-based. The settings on record: peptide 1 h at G1, release to G2/M arrest. As to the method:
The potential of CIP3-TAT to inhibit cohesion activity was explored by analyzing sister chromatid cohesion in cells arrested at the G2/M. Inserted in the LYS4 locus were LacO arrays, which bind LacI-GFP. In unperturbed cells arrested at the G2/M phase of the cell cycle, cohesin tethers the sister chromatids visualized under the microscope as a single GFP dot. When cohesin is inactivated, the sister chromatids fall apart and are seen as two distinctive GFP dots. yME-961 strain cells were grown to mid-log phase and arrested at the G1 phase of the cell cycle. Cells were divided into three samples, of which two were supplemented with TAT peptide alone or CIP3-TAT for 1 h. Then, the cells were released into the cell cycle until their rearrest at the G2/M phase. Cells were processed for cohesion assay (Figure 4A).
Supplementary Figure S3. Binding of CIP3-TAT to cohesin by microscale thermophoresis, Related to Figure 3. 10 µM CIP3-TAT was added to protein extracts from strain yAM-945 (Smc3-GFP). The formation of the CIP3-TAT and cohesin complex was analyzed by MST in binding mode. A. MST trace. […]
3. […] The purified proteins were analyzed on gel, followed by coomassie staining. […]
Supplementary Figure S5. […] The entry of the peptide into the cells was analyzed by epifluorescence microscopy.
Supplementary Figure S6. […] The cell cycle stage of the cells, described in Fig. 4B, was determined by flow cytometry. […]
In general terms: Flow cytometry measures light scatter and fluorescence of single cells or particles in a stream.

For another assay, the system named is yeast cells, G2/M. Put plainly: Chromosome condensation by two-photon microscopy. It is filed as cell-based. Particulars: nuclear-integrated density divided by circumference, at least 40 nuclei. As to the method:
Chromosome condensation depends on cohesin. However, this cohesin function can be separated from sister chromatid cohesion activity.[45]^,[46] We tested this possibility by analyzing chromatin in G2/M cells via two-photon microscopy.[47]^,[48] Cells were grown and treated as before.
The method is described in.[47]^,[48] Briefly, cells were grown to mid-log phase. Two-photon microscopy of live cells was performed with the LSM780 (Zeiss) inverted confocal microscope, using the Chameleon Vision II (Coherent) multiphoton laser (3 W, pulse width 140 fs at peak, repetition rate 80 MHz, tuning range 680-1080 nm, excitation 768 nm/image collection 512 nm). Slides were visualized with X63 N/A 1.4 objective lenses. Cells in G2/M were selected based on their morphology. Images were analyzed using Image J processing software. The condensation level is represented by the division of the nuclear-integrated density by its circumference. The significance between conditions was determined by using Student's t-test.

Assay [3] relates to cohesin (Smc3-V5) on chromatin, yKS-008 strain. Put plainly: Chromatin immunoprecipitation (ChIP) of cohesin (Smc3-V5). Format: cell-based, yeast. Particulars: G2/M arrested; anti-V5 ChIP-qPCR; centromeres of chromosomes 3 and 4, rDNA locus chromosome 12, CARC1 chromosome 3. The protocol:
To test the effect of CIP3 on the association of cohesin with chromatin, we performed a chromatin immunoprecipitation (ChIP) assay. yKS-008 strain (Smc3-V5) cells were grown to mid-log phase and arrested in the G1 phase of the cell cycle. Cells were untreated or supplemented with CIP3-TAT and then released into the cell cycle until they were rearrested at the G2/M phase. Cells were processed for ChIP with antibodies against V5 (Figure 4D). Cohesin residency was explored on loci on which cohesin enrichment: the centromeres of chromosome 3 and chromosome 4, the rDNA locus on chromosome 12 and the cohesin-associated region C1 (CARC1) on chromosome 3. […] However, it stabilizes non-cohesive chromosome-bound cohesin. […] Thus, we conclude that CIP3 inhibits ATP hydrolysis rather than blocks ATP binding and cohesin loading.
The cohesion GFP dot assay and ChIP are described in.[46]^,[63]^,[68] In brief, cohesion was studied by visualizing LacO arrays inserted at the LYS locus in a strain expressing LacI-GFP. Cell cultures were grown in a YEPD to OD600=0.5 and synchronized by nocodazole. Cells were fixed by incubating with 100 μl of 4% paraformaldehyde, 15min at room temperature and washed once (5,000rpm, 30sec, room temperature) with 1ml KOP4/sorbitol solution (0.1 M KOP4 pH=7.5 with 1.2 M sorbitol), resuspended in 100 μl of KOP4/sorbitol and stored at 4°C up to one month. […]
For orientation: In qPCR the cycle at which signal appears reflects the starting amount.

In the case of KRFKDMEYLSGGEKTGGYGRKKRRQRRR [CIP3-TAT], the “sister chromatid cohesion level” value in assay [1] is recorded as “precocious separation of the sister chromatids”. In addition, in assay [1] (LacO at LYS4, at least 300 cells in 3 independent experiments), the “cells with precocious separation of sister chromatids (two GFP dots)” value is recorded as “approximately 80%”. In assay [2], the “cell cycle delay” value is listed as “No cell cycle delays”. Further, in the assay on yeast cells, G2/M, the “chromatin condensation” value was “chromatin was decondensed in comparison with the untreated cells”. Further, the “cohesin residency on chromatin” value in assay [3] was “cohesin residency increased in cells treated with CIP3-TAT in all tested regions”.
